Numbered stars: 1 amine (or outer) side, 2 acyl side, 3 side chain; on linkers, the order of the positions; unused ones are H or OH. Bridge positions count the residues as written; N and C are the ends. Side chains are listed from the residue outwards. Peptide text beside a SMILES is read from it. * marks the point of attachment. C20 diacid = O=C(O)CCCCCCCCCCCCCCCCCCC(=O)*; γGlu = O=C(O)[C@H](CCC(=O)[*:2])N[*:1]; AEEA = NCCOCCOCC(=O)O
Target: T1, human amylin receptor (amylin 3(a) receptor: human calcitonin receptor + RAMP-3) (Homo sapiens, UniProt O60896+P30988)
T1 construct: expressed in transfected cells
T1 sequence (P30988 25-474): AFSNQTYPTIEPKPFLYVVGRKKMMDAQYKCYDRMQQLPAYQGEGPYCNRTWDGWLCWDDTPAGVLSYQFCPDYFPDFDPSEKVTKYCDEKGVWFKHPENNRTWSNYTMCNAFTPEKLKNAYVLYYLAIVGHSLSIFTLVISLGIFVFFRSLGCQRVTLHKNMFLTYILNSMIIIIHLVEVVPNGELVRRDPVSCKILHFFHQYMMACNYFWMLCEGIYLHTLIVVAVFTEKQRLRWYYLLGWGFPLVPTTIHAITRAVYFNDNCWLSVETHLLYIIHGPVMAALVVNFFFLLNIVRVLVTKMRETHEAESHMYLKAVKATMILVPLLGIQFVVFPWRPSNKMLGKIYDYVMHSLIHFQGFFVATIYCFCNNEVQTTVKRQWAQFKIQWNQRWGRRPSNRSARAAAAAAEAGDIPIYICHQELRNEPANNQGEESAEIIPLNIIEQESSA
T1 sequence (O60896 24-148 partner): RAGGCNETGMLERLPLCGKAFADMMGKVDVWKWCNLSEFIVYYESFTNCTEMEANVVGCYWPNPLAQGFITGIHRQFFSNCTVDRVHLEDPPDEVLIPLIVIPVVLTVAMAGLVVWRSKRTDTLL
Assay: Assay (II)a functional assay, human amylin receptor (CRE luciferase, BHK cells)
Format: cell-based

[1] = Table 6, human functional selectivity (hCTR EC50 / hAmylin-R EC50)
[2] = Table 6a, human functional selectivity (hCTR EC50 / hAmylin-R EC50), at least 5
[3] = Table 6i, hCTR funct. EC50 / hAmylin-R funct. EC50
[4] = Table 6j, hCTR funct. EC50 / hAmylin-R funct. EC50
[5] = Table 6k, hCTR funct. EC50 / hAmylin-R funct. EC50

Compound	Ratio hCT/hAmylin funct. [1]	Ratio hCT/hAmylin funct. [2]	Ratio hCT/hAmylin funct. [3]	Ratio hCT/hAmylin funct. [4]	Ratio hCT/hAmylin funct. [5]
CC[C@H](C)[C@H](NC(=O)[C@H](C)NC(=O)CNC(=O)[C@H](Cc1ccccc1)NC(=O)[C@H](CC(N)=O)NC(=O)[C@@H]1CCCN1C(=O)[C@H](CO)NC(=O)[C@H](CO)NC(=O)[C@H](Cc1c[nH]cn1)NC(=O)[C@H](CCCNC(=N)N)NC(=O)[C@H](CC(C)C)NC(=O)[C@H](Cc1ccccc1)NC(=O)[C@H](CCC(=O)O)NC(=O)[C@H](C)NC(=O)[C@H](CC(C)C)NC(=O)[C@H](CCCNC(=N)N)NC(=O)[C@H](CCC(N)=O)NC(=O)[C@@H](NC(=O)[C@H](C)NC(=O)[C@@H]1CSSC[C@H](NC(=O)[C@@H](N)CCCCNC(=O)CC[C@H](NC(=O)CCCCCCCCCCCCCCCCCCC(=O)O)C(=O)O)C(=O)N[C@@H](CC(N)=O)C(=O)N[C@@H]([C@@H](C)O)C(=O)N[C@@H](C)C(=O)N[C@@H]([C@@H](C)O)C(=O)N1)[C@@H](C)O)C(=O)N1CCC[C@H]1C(=O)N[C@@H](CO)C(=O)N[C@@H](CO)C(=O)N[C@H](C(=O)N[C@@H](CC(N)=O)C(=O)N[C@H](C(=O)NCC(=O)N[C@@H](Cc1c[nH]cn1)C(=O)N[C@@H](CCC(=O)O)C(=O)N[C@H](C(=O)N[C@@H](Cc1ccc(O)cc1)C(N)=O)[C@@H](C)O)C(C)C)[C@@H](C)O [Example 107] (H-K([γGlu-C20 diacid])CNTATCATQRLAEFLRHSSPNFGAIPSSTNVGHETY-NH2; disulfide 2-7 (inferred); N-terminus and C-terminus assumed)	6.3	6.3	6.3	6.3	6.3
CC[C@H](C)[C@H](NC(=O)[C@H](C)NC(=O)CNC(=O)[C@H](Cc1ccccc1)NC(=O)[C@H](CC(N)=O)NC(=O)[C@@H]1CCCN1C(=O)[C@H](CO)NC(=O)[C@H](CO)NC(=O)[C@H](Cc1c[nH]cn1)NC(=O)[C@H](CCCNC(=N)N)NC(=O)[C@H](CC(C)C)NC(=O)[C@H](Cc1ccccc1)NC(=O)[C@H](CC(N)=O)NC(=O)[C@H](C)NC(=O)[C@H](CC(C)C)NC(=O)[C@H](CCCNC(=N)N)NC(=O)[C@H](CCC(N)=O)NC(=O)[C@@H](NC(=O)[C@H](C)NC(=O)[C@@H]1CSSC[C@H](NC(=O)[C@@H](N)CCCCNC(=O)CC[C@H](NC(=O)CCCCCCCCCCCCCCCCCCC(=O)O)C(=O)O)C(=O)N[C@@H](CC(N)=O)C(=O)N[C@@H]([C@@H](C)O)C(=O)N[C@@H](C)C(=O)N[C@@H]([C@@H](C)O)C(=O)N1)[C@@H](C)O)C(=O)N1CCC[C@H]1C(=O)N[C@@H](CO)C(=O)N[C@@H](CO)C(=O)N[C@H](C(=O)N[C@@H](CC(N)=O)C(=O)N[C@H](C(=O)NCC(=O)N[C@@H](CO)C(=O)N[C@@H](CC(N)=O)C(=O)N[C@H](C(=O)N[C@@H](Cc1ccc(O)cc1)C(N)=O)[C@@H](C)O)C(C)C)[C@@H](C)O [Example 48]	17.0	17.0	–	17.0	17.0
CC[C@H](C)[C@H](NC(=O)[C@H](C)NC(=O)CNC(=O)[C@H](Cc1ccccc1)NC(=O)[C@H](CC(N)=O)NC(=O)[C@@H]1CCCN1C(=O)[C@H](CO)NC(=O)[C@H](CO)NC(=O)[C@H](Cc1c[nH]cn1)NC(=O)[C@H](CCCNC(=N)N)NC(=O)[C@H](CC(C)C)NC(=O)[C@H](Cc1ccccc1)NC(=O)[C@H](CC(N)=O)NC(=O)[C@H](C)NC(=O)[C@H](CC(C)C)NC(=O)[C@H](CCCNC(=N)N)NC(=O)[C@H](CCC(N)=O)NC(=O)[C@@H](NC(=O)[C@H](C)NC(=O)[C@@H]1CSSC[C@H](NC(=O)[C@@H](N)CCCCNC(=O)COCCOCCNC(=O)COCCOCCNC(=O)CC[C@H](NC(=O)CCCCCCCCCCCCCCCCCCC(=O)O)C(=O)O)C(=O)N[C@@H](CC(N)=O)C(=O)N[C@@H]([C@@H](C)O)C(=O)N[C@@H](C)C(=O)N[C@@H]([C@@H](C)O)C(=O)N1)[C@@H](C)O)C(=O)N1CCC[C@H]1C(=O)N[C@@H](CO)C(=O)N[C@@H](CO)C(=O)N[C@H](C(=O)N[C@@H](CC(N)=O)C(=O)N[C@H](C(=O)NCC(=O)N[C@@H](CCCNC(=N)N)C(=O)N[C@@H](CC(N)=O)C(=O)N[C@H](C(=O)N[C@@H](Cc1ccc(O)cc1)C(N)=O)[C@@H](C)O)C(C)C)[C@@H](C)O [Example 95] (H-K([AEEA-AEEA-γGlu-C20 diacid])CNTATCATQRLANFLRHSSPNFGAIPSSTNVGRNTY-NH2; disulfide 2-7 (inferred); N-terminus and C-terminus assumed)	33.0	33.0	–	33.0	33.0

Continued, values first:

Ratio hCT/hAmylin funct. [1]	Ratio hCT/hAmylin funct. [2]	Ratio hCT/hAmylin funct. [3]	Ratio hCT/hAmylin funct. [4]	Ratio hCT/hAmylin funct. [5]	Compound
6.5	6.5	6.5	6.5	6.5	CC[C@H](C)[C@H](NC(=O)[C@H](C)NC(=O)CNC(=O)[C@H](Cc1ccccc1)NC(=O)[C@H](CC(N)=O)NC(=O)[C@@H]1CCCN1C(=O)[C@H](CO)NC(=O)[C@H](CO)NC(=O)[C@H](Cc1c[nH]cn1)NC(=O)[C@H](CCCNC(=N)N)NC(=O)[C@H](CC(C)C)NC(=O)[C@H](Cc1ccccc1)NC(=O)[C@H](CCC(=O)O)NC(=O)[C@H](C)NC(=O)[C@H](CC(C)C)NC(=O)[C@H](CCCNC(=N)N)NC(=O)[C@H](CCC(N)=O)NC(=O)[C@@H](NC(=O)[C@H](C)NC(=O)[C@@H]1CSSC[C@H](NC(=O)[C@@H](N)CCCCNC(=O)CC[C@H](NC(=O)CCCCCCCCCCCCCCCCCCC(=O)O)C(=O)O)C(=O)N[C@@H](CC(N)=O)C(=O)N[C@@H]([C@@H](C)O)C(=O)N[C@@H](C)C(=O)N[C@@H]([C@@H](C)O)C(=O)N1)[C@@H](C)O)C(=O)N1CCC[C@H]1C(=O)N[C@@H](CO)C(=O)N[C@@H](CO)C(=O)N[C@H](C(=O)N[C@@H](CC(N)=O)C(=O)N[C@H](C(=O)NCC(=O)N[C@@H](CCCNC(=N)N)C(=O)N[C@@H](CCC(=O)O)C(=O)N[C@H](C(=O)N[C@@H](Cc1ccc(O)cc1)C(N)=O)[C@@H](C)O)C(C)C)[C@@H](C)O [Example 108] (H-K([γGlu-C20 diacid])CNTATCATQRLAEFLRHSSPNFGAIPSSTNVGRETY-NH2; disulfide 2-7 (inferred); N-terminus and C-terminus assumed)
6.5	6.5	–	6.5	6.5	CC[C@H](C)[C@H](NC(=O)[C@H](C)NC(=O)CNC(=O)[C@H](Cc1ccccc1)NC(=O)[C@H](CC(N)=O)NC(=O)[C@@H]1CCCN1C(=O)[C@H](CO)NC(=O)[C@H](CO)NC(=O)[C@H](Cc1c[nH]cn1)NC(=O)[C@H](CCCNC(=N)N)NC(=O)[C@H](CC(C)C)NC(=O)[C@H](Cc1ccccc1)NC(=O)[C@H](CC(N)=O)NC(=O)[C@H](C)NC(=O)[C@H](CC(C)C)NC(=O)[C@H](CCCNC(=N)N)NC(=O)[C@H](CCC(N)=O)NC(=O)[C@@H](NC(=O)[C@H](C)NC(=O)[C@@H]1CSSC[C@H](NC(=O)[C@@H](N)CCCCNC(=O)COCCOCCNC(=O)CCCCCCCCCCCCCCCCCCC(=O)O)C(=O)N[C@@H](CC(N)=O)C(=O)N[C@@H]([C@@H](C)O)C(=O)N[C@@H](C)C(=O)N[C@@H]([C@@H](C)O)C(=O)N1)[C@@H](C)O)C(=O)N1CCC[C@H]1C(=O)N[C@@H](CO)C(=O)N[C@@H](CO)C(=O)N[C@H](C(=O)N[C@@H](CC(N)=O)C(=O)N[C@H](C(=O)NCC(=O)N[C@@H](CO)C(=O)N[C@@H](CC(N)=O)C(=O)N[C@H](C(=O)N[C@@H](Cc1ccc(O)cc1)C(N)=O)[C@@H](C)O)C(C)C)[C@@H](C)O [Example 43]
3.8	–	3.8	3.8	–	CC[C@H](C)[C@H](NC(=O)[C@H](C)NC(=O)CNC(=O)[C@H](Cc1ccccc1)NC(=O)[C@H](CC(N)=O)NC(=O)[C@@H]1CCCN1C(=O)[C@H](CO)NC(=O)[C@H](CO)NC(=O)[C@H](Cc1c[nH]cn1)NC(=O)[C@H](CCCNC(=N)N)NC(=O)[C@H](CC(C)C)NC(=O)[C@H](Cc1ccccc1)NC(=O)[C@H](CCC(=O)O)NC(=O)[C@H](C)NC(=O)[C@H](CC(C)C)NC(=O)[C@H](CCCNC(=N)N)NC(=O)[C@H](CCC(N)=O)NC(=O)[C@@H](NC(=O)[C@H](C)NC(=O)[C@@H]1CSSC[C@H](NC(=O)[C@@H](N)CCCCNC(=O)CC[C@H](NC(=O)CC[C@H](NC(=O)CCCCCCCCCCCCCCCCCCC(=O)O)C(=O)O)C(=O)O)C(=O)N[C@@H](CC(N)=O)C(=O)N[C@@H]([C@@H](C)O)C(=O)N[C@@H](C)C(=O)N[C@@H]([C@@H](C)O)C(=O)N1)[C@@H](C)O)C(=O)N1CCC[C@H]1C(=O)N[C@@H](CO)C(=O)N[C@@H](CO)C(=O)N[C@H](C(=O)N[C@@H](CC(N)=O)C(=O)N[C@H](C(=O)NCC(=O)N[C@@H](Cc1c[nH]cn1)C(=O)N[C@@H](CC(N)=O)C(=O)N[C@H](C(=O)N[C@@H](Cc1ccc(O)cc1)C(N)=O)[C@@H](C)O)C(C)C)[C@@H](C)O [Example 87] (H-K([γGlu-γGlu-C20 diacid])CNTATCATQRLAEFLRHSSPNFGAIPSSTNVGHNTY-NH2; disulfide 2-7)
